Here are results for 1 compound from patent US9744221B2, “Method and compositions for inhibiting or preventing adverse effects of oral antibiotics” (Synthetic Biologics, Inc., priority 2014, dated 2017).

Molecules are shown by their SMILES.

One data set relates to intestinal microbiome. The data set is described as follows: Fecal microbiome whole genome shotgun sequencing in piglets given oral amoxicillin with or without SYN-004 (Example 1). The format is in vivo, Yorkshire piglets. Particulars: Day -7 to Day 9, FIGS. 3 and 4.
The next data set can be described thus: in vivo. The conditions noted are these: Yorkshire, pig, po, 20 mg/kg.

Experimental for in vivo: A total of ten, two-month old Yorkshire piglets, approximately 20 kg each, were used for this study. All 10 animals were treated with oral amoxicillin twice a day for a total of 7 days, and one cohort of 5 animals was also treated with oral SYN-004 four times a day for a total of 9 days. The SYN-004 treatment was started the day before amoxicillin treatment and continued for a day after amoxicillin was stopped (FIG. 1).
On Study Day 0, Group 2 (Pigs 6-10) received one size 0 capsule of SYN-004; containing 75 mg of SYN-004, orally, four times a day at 7 am, 12 pm, 5 pm, and 10 pm for a total of 9 days. Pigs were fed 3 times a day, after SYN-004 dosing at 7 am, after SYN-004 dosing at 12 pm, and after SYN-004 dosing at 5 pm. Beginning on Study Day 1, Groups 1 and 2 (Pigs 1-10) received oral amoxicillin (fruit flavored oral suspension, Sandoz, NDC: 0781-6157-46, Lot #EY9130; 20 mg/kg) twice a day at 7 am and at 5 pm, for a total of 7 days. Animals received the amoxicillin first, followed by the SYN-004, then feeding.
On Day 2, after 4 amoxicillin doses, animals were bled and serum collected. Blood was collected aseptically from the vena cava from anesthetized animals. Three blood draws were performed, at 1 hr, 3 hrs, and 8 hrs after amoxicillin administration. A Telazol cocktail was administered intramuscularly at a minimal dose (1 mL or less per 50 lbs) to achieve light anesthesia/sedations. At each timepoint, approximately 9 mL of blood was collected into a serum separator vacutainer tube.
Amoxicillin levels in the pig serum were quantified using a modification of a validated HPLC-based assay (Du et al., 2005). […] The assay was linear over a range of 1 to 30 ug/mL (R=0.999). Interday coefficients of variation for the low (1.5 ug/mL) and high (20 ug/mL) quality control samples were 3.9% and 4.9% respectively. Interday coefficients of variation were 3.8% and 2.8%, respectively. Peak height was used to integrate all the peaks. Sigma Plot was used to calculate drug concentrations and a −1 weighting factor was used. […]
Experimental for intestinal microbiome: A study was performed using normal piglets to determine if SYN-004, when delivered orally with oral amoxicillin, functions to protect the microbiome from amoxicillin-induced dysbiosis.
A total of ten, two-month old Yorkshire piglets, approximately 20 kg each, were used for this study. All 10 animals were treated with oral amoxicillin twice a day for a total of 7 days, and one cohort of 5 animals was also treated with oral SYN-004 four times a day for a total of 9 days.
Two pre-treatment fecal samples were obtained, the first 4 days after the animals arrived at the animal treatment facility (Day −7), and the second 7 days after arrival (Day −4). An additional 3 fecal samples were collected at Day 4, Day 8, and Day 9. […]
DNA was isolated from the fecal samples and subjected to whole genome shotgun sequencing using an Illumina HiSeq system with a target of 20 million 100 bp single reads per sample. […]
The median similarity based on the relative bacterial strain abundance was calculated.
A statistical analysis was performed to determine the probability that the microbiomes before and after antibiotic treatment remained the same or were different. The microbiome sequence data were analyzed using a parameterization of the Dirichlet-Multinomial distribution (La Rosa et al., 2012) to perform a Likelihood Ratio Test.

On to `CC1(C)S[C@@H]2[C@H](NC(=O)[C@H](N)c3ccc(O)cc3)C(=O)N2[C@H]1C(=O)O` [amoxicillin, Amoxicillin], for which, in the data set with intestinal microbiome, the “diversity of the microbiome (median percent similarity of strain relative abundance)” value was “continued to lose diversity throughout the duration of the study”. Besides, in “in vivo”, the concentration at 1 h came out at 8900 ± 800 ng/mL, the concentration at 3 h is 3900 ± 300 ng/mL and the concentration at 8 h was found to be 1500 ± 300 ng/mL.
